Earlier results on one molecule are cited in publication PMC6247902 (Cancer immunology research, 2018).

This data set has as its system serum albumin. Conditions: read-out: affinity for serum albumin, KD.

In the case of `Cc1c(C)c2c(c(C)c1O)CC[C@@](C)(CCC[C@H](C)CCC[C@H](C)CCCC(C)C)O2` [α-tocopherol], the Kd is around 7 µM.
